{"source": "ChEMBL document CHEMBL1138245", "about": "“Discovery of N1-(6-chloroimidazo[2,1-b][1,3]thiazole-5-sulfonyl)tryptamine as a potent, selective, and orally active 5-HT(6) receptor agonist” (J Med Chem, 2007)", "key": {"[1]": {"target": "T1, 5-hydroxytryptamine receptor 6 (Homo sapiens, UniProt P50406)", "T1 sequence (P50406 whole entry)": "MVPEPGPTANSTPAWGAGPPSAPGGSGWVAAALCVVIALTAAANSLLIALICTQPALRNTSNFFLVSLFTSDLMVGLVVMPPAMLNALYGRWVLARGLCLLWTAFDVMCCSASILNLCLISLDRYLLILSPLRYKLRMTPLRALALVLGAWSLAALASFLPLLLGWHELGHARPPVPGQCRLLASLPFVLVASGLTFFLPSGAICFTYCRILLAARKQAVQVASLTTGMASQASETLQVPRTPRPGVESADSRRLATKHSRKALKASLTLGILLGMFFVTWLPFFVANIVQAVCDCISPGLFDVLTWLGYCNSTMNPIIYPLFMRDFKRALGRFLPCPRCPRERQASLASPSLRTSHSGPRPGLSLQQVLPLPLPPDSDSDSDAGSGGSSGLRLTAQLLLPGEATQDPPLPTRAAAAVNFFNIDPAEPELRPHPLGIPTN", "assay": "Displacement of [3H]LSD from human 5HT6 receptor expressed in HeLa cells", "type": "cell-based"}, "[2]": {"target": "T1, 5-hydroxytryptamine receptor 6", "assay": "Agonist activity at human 5HT6 receptor expressed in HeLa cells assessed as cAMP production", "type": "functional, cell-based"}}, "data": [{"molecule": "NCCc1cn(S(=O)(=O)c2ccc(Cl)cc2)c2ccccc12", "values": [{"measurement": "Ki", "setting": "[1]", "result": 10, "unit": "nM"}, {"measurement": "EC50", "setting": "[2]", "result": 174, "unit": "nM"}, {"measurement": "Emax", "setting": "[2]", "result": 93.5, "unit": "%"}]}]}
